Common to all, as to experiment: inhibition of tumour cell growth, NCI panel, 48 h
Test [1] deals with A498 renal.
Test [2] concerns SK-OV-3 ovarian.
Test [3] relates to CCRF-CEM leukemia.
For test [4], the system named is TK-10 renal.
In test [5] the test system is SF-539 CNS.
Test [6] deals with OVCAR-5 ovarian.
Test [7] concerns HS 578T breast.
Test [8] deals with MDA-MB-231 breast.
Test [9] deals with UACC-257 melanoma.
Test [10] concerns EKVX NSCLC.

The record followed here is PubChem BioAssay (NCI).

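Method: 48-hour compound exposure of cells in 96-well plates, five concentrations, linear interpolation of endpoints. GI50 = concentration required for 50% inhibition of growth. At the TGI there is no net growth.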

`CC(C)C[C@H](NC(=O)[C@H](Cc1ccccc1)n1ccc(N2CCCCC2)cc1=O)B(O)O`: the GI50 was 0.127 µM in test [1]; 2.36 µM in test [2]; 0.429 µM in test [3]; 0.375 µM in test [4]; 0.206 µM in [5]; 3.15 µM in test [6]. In addition, the GI50 in test [7] was 0.427 µM; in test [8], 1.2 µM. The TGI in test [1] was 0.736 µM; in test [2] it was 71.5 µM; in [3] it was over 100 µM; in test [4], 15.6 µM; in [5] it was 0.604 µM; in [6], 97.3 µM. Besides, the TGI in [7] came to 6.2 µM; in [8], 12.2 µM.
`Cc1ccc(Nc2nc(NCCO)c3ccccc3n2)cc1C`: the GI50 was 0.0535 µM in test [1]; 14.2 µM in [2]; 2.14 µM in test [9]; 4.57 µM in [3]; 11.1 µM in [4]; 5.87 µM in test [5]. Besides, the figures for the GI50 in test [6], in [7] and in test [8] were 4.29 µM, 12.4 µM and 4.22 µM, respectively. Besides, the TGI in test [1] was found to be 2.06 µM; in test [2] it was 27.6 µM; in test [9] it was 7.37 µM; in test [3], 18.6 µM; in test [4], 23.3 µM; in [5] it was 19.7 µM. For the same compound, the TGI in [6] was 16.4 µM; in test [7], 33.8 µM; in test [8], 16.1 µM.
As to `C=C1C(=O)O[C@@H]2C[C@@H]1CC[C@]1(C)O[C@H]1CC[C@@]1(C)O[C@@H]1CC[C@@]2(C)O`, the GI50 is 59.8 µM in test [10]; over 100 µM in [2]; 61.9 µM in test [9]; 17.5 µM in test [3]; 39.4 µM in test [4]; 35.1 µM in [5]. Besides, the results for the GI50 in [6], in test [7] and in test [8] were 29.2 µM, 22.7 µM and 25.1 µM, respectively. In addition, the TGI was over 100 µM in test [10]; over 100 µM in test [2]; over 100 µM in [9]; 49.4 µM in test [3]; over 100 µM in test [4]; over 100 µM in test [5]. Also, the TGI is over 100 µM in [6], 67.3 µM in [7] and 68.4 µM in [8].
Consider `O=[N+]([O-])c1ccc(N2CCN(Cc3ccccc3)CC2)c2c1no[n+]2[O-]`, for which the GI50 in [1] is 1.52 µM; in test [2], 1.98 µM; in test [9], 1.68 µM; in [3] it was 0.155 µM; in [4], 1.75 µM; in [5], 1.54 µM. Further, the figures for the GI50 in test [6], in [7] and in test [8] were 4.15 µM, 2.32 µM and 1.56 µM, respectively. Besides, the TGI in [1] was 4.35 µM; in test [2], 4.89 µM; in [9] it was 3.86 µM; in test [3], 2.49 µM; in [4], 3.23 µM; in test [5], 3 µM. The TGI was 8.77 µM in [6], 7.99 µM in test [7] and 3.08 µM in test [8].
With `Cn1c(C(N)=O)cc2c1-c1nc(Nc3ccccc3)ncc1CCC2`, the GI50 in [1] is 0.204 µM; in test [2], 3.51 µM; in test [9], 19.7 µM; in [3], 6.21 µM; in test [4], 3.97 µM; in test [5], 3.93 µM. Besides, the GI50 in [6] is 2.54 µM; in [7], 1.97 µM; in test [8], 5.59 µM. Further, the TGI was 0.955 µM in test [1]; 20.8 µM in [2]; 88.7 µM in [9]; over 100 µM in test [3]; 52.3 µM in test [4]; 28 µM in [5]. In addition, the TGI in test [6] was 25.1 µM; in [7], 6.9 µM; in [8], over 100 µM.
In the case of `OCCN(CCO)N=Nc1ccc(-c2nc3ccccc3[nH]2)cc1`, the GI50 is 17.1 µM in test [10]; over 100 µM in [2]; 33.2 µM in test [9]; 36.1 µM in test [4]; over 100 µM in test [6]; 23.5 µM in test [7]. The GI50 in [8] was 31.3 µM. Also, the TGI in test [10] was 37.5 µM; in test [2], over 100 µM; in [9], over 100 µM; in test [4], over 100 µM; in test [6] it was over 100 µM; in test [7], 72.8 µM. The compound further had a TGI in test [8] of 97.8 µM.
On to `Cc1ccc(C)c(NC(=O)C(=O)C(c2cnc3ccc([N+](=O)[O-])cc3n2)[N+](=O)[O-])c1` (centres undefined), for which the TGI was over 100 µM in test [10]; 69 µM in test [1]; over 100 µM in [2]; over 100 µM in [9]; 79.1 µM in test [3]; over 100 µM in [4]. Besides, the TGI in test [5], in test [6] and in test [7] was over 100 µM in each case.
Turning to `CNc1ccccc1C(=O)N/N=C/C=C/c1ccccc1`, the GI50 is 0.39 µM in [1]; 4.15 µM in test [2]; 11.4 µM in test [9]; 2.39 µM in [3]; 3.33 µM in [4]; 1.09 µM in test [5]. Besides, the GI50 in [6] is 6.64 µM; in test [7] it was 1.97 µM; in test [8], 4.11 µM. Also, the TGI is 5.81 µM in [1]; over 100 µM in test [2]; 72.1 µM in test [9]; 97 µM in [3]; over 100 µM in test [4]; 4.91 µM in [5]. The TGI was over 76.5 µM in test [6], over 100 µM in [7] and 62 µM in test [8].
With `COc1ccc(-c2ccc(C3CC(c4ccc(O)cc4)=NN3)o2)c([N+](=O)[O-])c1` (centres undefined), the GI50 in [10] was 43 µM; in [1], 30.4 µM; in test [2], 19.8 µM; in test [3], 4.84 µM; in [4] it was 40.1 µM; in test [5] it was 27.4 µM. Further, the GI50 in [6] is over 100 µM; in test [7] it was 34.7 µM. Also, the TGI in [10] was over 100 µM; in [1], over 100 µM; in [2], over 100 µM; in test [3] it was over 100 µM; in test [4], over 100 µM; in [5], 97.5 µM. The TGI in [6] and in test [7] was over 100 µM in each case.
As to `O=[N+]([O-])c1cnc(Sc2ccncn2)c([N+](=O)[O-])c1`, the GI50 in test [1] was 24.9 µM; in test [2] it was 16.9 µM; in [9], 1.78 µM; in test [3], 1.21 µM; in test [4], 1.74 µM; in test [5], 15.3 µM. Besides, the values for the GI50 in [6], in test [7] and in test [8] were 16.3 µM, 19.2 µM and 14.8 µM, respectively. The TGI in test [1] stood at 65.3 µM; in test [2], 31.1 µM; in test [9], 3.38 µM; in test [3], 4.47 µM; in test [4], 3.21 µM; in [5], 28.9 µM. The results for the TGI in test [6], in test [7] and in test [8] were 31.7 µM, 57.2 µM and 28.4 µM, respectively.
Consider `Cc1ccc(C)c(NC(=O)C(=O)C2C(=O)C3=C(CC2(C)C)Nc2ccccc2S3)c1` (centres undefined), for which the TGI in [10], in test [2], in test [9], in [3], in test [4] and in [5] was over 100 µM in each case. Moreover, the TGI in test [6], in [7] and in test [8] was over 100 µM in each case.
For the compound `CN(C)/[N+]([O-])=N/Oc1cc(Nc2cccc(C(=O)O)c2)c([N+](=O)[O-])cc1[N+](=O)[O-]`, the GI50 was over 100 µM in test [10]; over 100 µM in test [9]; over 100 µM in test [4]; over 100 µM in [5]; over 100 µM in [6]; 34.7 µM in [7]. The GI50 in test [8] was over 100 µM. Further, the TGI in test [10], in [9], in test [4], in test [5], in [6] and in test [7] was over 100 µM throughout. Besides, in test [8], the TGI is over 100 µM.
With `Oc1ccc2ccccc2c1C=NCCCN=Cc1c(O)ccc2ccccc12`, the GI50 in test [10] was 17.3 µM; in [2], 24.8 µM; in test [9], 21.7 µM; in [3], 5.26 µM; in test [4], 24.4 µM; in [5], 17.8 µM. The GI50 is 28.4 µM in test [6], 8.05 µM in test [7] and 11.6 µM in [8]. Also, the TGI was over 100 µM in [10]; 67.5 µM in test [2]; over 100 µM in test [9]; 56.5 µM in test [3]; over 100 µM in [4]; 40.8 µM in test [5]. The figures for the TGI in test [6], in test [7] and in test [8] were 81.4 µM, 36.7 µM and 30.2 µM, respectively.
